The source of these data is paper PMC8041284, “Tunable Methacrylamides for Covalent Ligand Directed Release Chemistry” (Journal of the American Chemical Society, 2021).

A word on the inhibition: it is the relative decrease from the control value, in per cent.

The target of this assay is BTK (Homo sapiens, UniProt Q06187). As to the kind of experiment: biochemical. The conditions noted are these: read-out: BTK inhibition (%), 0.75 uM BTK, […] probe 3l, 15 min preincubation.
Sequence of BTK (Q06187 402-655 limits assumed): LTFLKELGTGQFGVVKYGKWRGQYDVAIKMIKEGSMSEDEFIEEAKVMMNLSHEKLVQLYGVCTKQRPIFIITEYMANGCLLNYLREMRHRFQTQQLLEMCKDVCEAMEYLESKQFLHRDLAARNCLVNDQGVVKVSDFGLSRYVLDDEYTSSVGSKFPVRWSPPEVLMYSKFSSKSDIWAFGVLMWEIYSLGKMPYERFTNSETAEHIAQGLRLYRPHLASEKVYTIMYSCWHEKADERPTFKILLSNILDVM

Consider `C[C@H]1O[C@@H](O[C@H]2CC[C@@]3(C)[C@@H](CC[C@]4(C)[C@@H]3C=CC3=C5CC(C)(C)CC[C@]5(CO)[C@@H](O)C[C@]34C)[C@]2(C)CO)[C@H](O[C@@H]2O[C@H](CO)[C@@H](O)[C@H](O)[C@H]2O)[C@@H](O[C@@H]2O[C@H](CO)[C@@H](O)[C@H](O)[C@H]2O)[C@H]1O` [PCM-0216370], for which the inhibition at 10 µM is 25.5%.

On to `OC[C@H]1O[C@@H](Oc2cc(O)cc(/C=C/c3ccc(O[C@@H]4O[C@H](CO)[C@@H](O)[C@H](O)[C@H]4O)cc3O)c2)[C@H](O)[C@@H](O)[C@@H]1O` [PCM-0216371], for which the inhibition at 10 µM is -5.4%.

Take `COc1cc(-c2oc3cc(O)cc(O)c3c(=O)c2O[C@@H]2O[C@H](CO[C@@H]3O[C@@H](C)[C@H](O)[C@@H](O)[C@H]3O)[C@@H](O)[C@H](O)[C@H]2O[C@@H]2O[C@@H](C)[C@H](O)[C@@H](O)[C@H]2O)ccc1O` [PCM-0216372]: the inhibition at 10 µM worked out at 7.7%.

As for `C=C[C@@H]1CNC(=S)O1` [PCM-0216374], the inhibition at 10 µM is -6.2%.

As to `CC(C)=CCC[C@](C)(O[C@@H]1O[C@H](CO[C@@H]2OC[C@H](O)[C@H](O)[C@H]2O)[C@@H](O)[C@H](O)[C@H]1O)[C@H]1CC[C@]2(C)[C@@H]1[C@H](O)C[C@@H]1[C@@]3(C)CC[C@H](O[C@@H]4O[C@H](CO)[C@@H](O)[C@H](O)[C@H]4O[C@@H]4O[C@H](CO)[C@@H](O)[C@H](O)[C@H]4O)C(C)(C)[C@@H]3CC[C@]12C` [PCM-0216375], the inhibition at 10 µM was 7.7%.

`COc1ccc(-c2oc3c(CC=C(C)C)c(O)cc(O)c3c(=O)c2O)cc1` [PCM-0216376]: the inhibition at 10 µM was determined as 3.9%.

For `C=C(C)[C@@H]1CC[C@]2(C(=O)O[C@@H]3O[C@H](CO[C@@H]4O[C@H](CO)[C@@H](O[C@@H]5O[C@@H](C)[C@H](O)[C@@H](O)[C@H]5O)[C@H](O)[C@H]4O)[C@@H](O)[C@H](O)[C@H]3O)CC[C@]3(C)[C@H](CC[C@@H]4[C@@]5(C)CC[C@H](O[C@@H]6OC[C@H](O)[C@H](O)[C@H]6O[C@@H]6O[C@@H](C)[C@H](O)[C@@H](O)[C@H]6O)[C@@](C)(CO)[C@@H]5CC[C@]43C)[C@@H]12` [PCM-0216377], the inhibition at 10 µM is -42.6%.

Consider `O=C[C@H](O)[C@@H](O)[C@H](O)[C@H](O)CO[C@H]1O[C@H](CO[C@H]2O[C@H](CO)[C@H](O)[C@H](O)[C@H]2O)[C@H](O)[C@H](O)[C@H]1O` [PCM-0216378], for which the inhibition at 10 µM was determined as 3.9%.

Take `CN1Cc2c(ccc3c2OCO3)[C@@]2(C)[C@@H](O)Cc3cc4c(cc3[C@@H]12)OCO4` [PCM-0216379]: the inhibition at 10 µM is -2.3%.

Regarding `CC1(C)CC[C@]2(C(=O)O)CC[C@]3(CO)C(=CC[C@@H]4[C@@]5(C)C[C@H](O)[C@H](O[C@@H]6O[C@H](CO)[C@@H](O)[C@H](O)[C@H]6O)[C@@](C)(C(=O)O)[C@@H]5CC[C@]43C)[C@@H]2C1` [PCM-0216380], the inhibition at 10 µM stood at 11.6%.

Consider `COc1ccc(-c2coc3cc(O[C@@H]4O[C@H](CO)[C@@H](O)[C@H](O)[C@H]4O)ccc3c2=O)cc1O` [PCM-0216381], for which the inhibition at 10 µM is -10%.

As for `COc1ccc2c(c1O)-c1c(O)c(OC)cc3c1[C@H](C2)[N+](C)(C)CC3` [PCM-0216382], the inhibition at 10 µM was -1.5%.

As to `O=C(O[C@@H]1O[C@@H]2COC(=O)c3cc(O)c(O)c(O)c3-c3c(cc(O)c(O)c3O)C(=O)O[C@H]([C@H]1O)[C@@H]2O)c1cc(O)c(O)c(O)c1` [PCM-0216383], the inhibition at 10 µM was 37.1%.

Take `CCCCCCCCC[C@H](O)CC(=O)CCc1ccc(O)c(OC)c1` [PCM-0216384]: the inhibition at 10 µM is -10.8%.

For `COc1cc2c(cc1O)C[C@@H]1NCCc3cc(OC)c(O)c-2c31` [PCM-0216385], the inhibition at 10 µM turned out to be 6.2%.

With `C[C@@H]1CCC=C2C(=O)C[C@H]3OOC(C)(C)[C@H]3[C@]21C` [PCM-0216386], the inhibition at 10 µM came out at 7.7%.

On to `Cc1cc(O)c(C(=O)CCC(C)C)c(=O)o1` [PCM-0216387], for which the inhibition at 10 µM came out at 5.4%.

With `CC1(C)CC[C@]2(C(=O)O)CCC3=C([C@@H](CCl)C[C@@H]4[C@@]5(C)C[C@H](O)[C@H](O)[C@@](C)(C(=O)O)[C@@H]5CC[C@@]34C)[C@@H]2C1` [PCM-0216388], the inhibition at 10 µM was -4.6%.

On to `C[C@@H]1O[C@@H](OC[C@H]2O[C@@H](Oc3cc(O)c4c(=O)cc(-c5ccc(O)cc5)oc4c3)[C@H](O[C@@H]3O[C@@H](C)[C@H](O)[C@@H](O)[C@H]3O)[C@@H](O)[C@@H]2O)[C@H](O)[C@H](O)[C@H]1O` [PCM-0216389], for which the inhibition at 10 µM was 13.9%.

Turning to `CC(=O)O[C@@H](C[C@@H](C)C1=C2C[C@H](O)[C@H]3[C@@]4(C)CCC(=O)C(C)(C)[C@@H]4CC[C@]3(C)[C@@]2(C)CC1)[C@H]1OC1(C)C` [PCM-0216390], the inhibition at 10 µM is -4.6%.

As for `C/C=C/c1cc(OC)c2c(c1)C(C)C(c1ccc(O)c(OC)c1)O2` (stereo not shown) [PCM-0216391], the inhibition at 10 µM was found to be 19.3%.

Regarding `O=c1cc(-c2ccc(O)c(O)c2)oc2c([C@@H]3O[C@H](CO)[C@@H](O)[C@H](O)[C@H]3O)c(O)cc(O)c12` [PCM-0216392], the inhibition at 10 µM is -22.4%.

Regarding `CC1(C)CC[C@]2(C(=O)O[C@@H]3O[C@H](CO)[C@@H](O)[C@H](O)[C@H]3O)CC[C@]3(C)C(=CC[C@@H]4[C@@]5(C)CC[C@H](O[C@@H]6O[C@H](C(=O)O)[C@@H](O)[C@H](O)[C@H]6O[C@@H]6O[C@H](CO)[C@@H](O)[C@H](O)[C@H]6O)C(C)(C)[C@@H]5CC[C@]43C)[C@@H]2C1` [PCM-0216395], the inhibition at 10 µM was 4.6%.

Turning to `O=C[C@H](O)[C@@H](O)[C@H](O[C@H]1O[C@H](CO)[C@@H](O[C@H]2O[C@H](CO)[C@@H](O[C@H]3O[C@H](CO)[C@@H](O[C@H]4O[C@H](CO)[C@@H](O)[C@H](O)[C@H]4O)[C@H](O)[C@H]3O)[C@H](O)[C@H]2O)[C@H](O)[C@H]1O)[C@H](O)CO` [PCM-0216396], the inhibition at 10 µM came to 3.1%.

Consider `CC(C)=CCC[C@](C)(O[C@@H]1O[C@H](CO)[C@@H](O)[C@H](O)[C@H]1O)[C@H]1CC[C@]2(C)[C@@H]1[C@H](O)C[C@@H]1[C@@]3(C)CC[C@H](O)C(C)(C)[C@@H]3CC[C@]12C` [PCM-0216397], for which the inhibition at 10 µM was 11.6%.

In the case of `COc1cc2c(=O)c(-c3ccc(O)cc3)coc2cc1O` [PCM-0216399], the inhibition at 10 µM turned out to be 6.2%.

`C[C@H]1CC[C@@]2(OC1)O[C@H]1C[C@H]3[C@@H]4CC[C@@H]5C[C@@H](O[C@@H]6O[C@H](CO)[C@H](O)[C@H](O)[C@H]6O[C@@H]6O[C@H](CO)[C@@H](O)[C@H](O)[C@H]6O)CC[C@]5(C)[C@H]4CC[C@]3(C)[C@H]1[C@@H]2C` [PCM-0216400]: the inhibition at 10 µM came to 1.5%.

Turning to `OC[C@H]1O[C@@](CO)(OC[C@@]2(O[C@H]3O[C@H](CO)[C@@H](O)[C@H](O)[C@H]3O)O[C@H](CO)[C@@H](O)[C@@H]2O)[C@@H](O)[C@@H]1O` [PCM-0216401], the inhibition at 10 µM was 21.6%.

For the molecule `COc1cc(-c2oc3cc(O)cc(O)c3c(=O)c2O)ccc1O` [PCM-0216402], the inhibition at 10 µM stood at 73.4%.

Turning to `C[C@@H]1CC[C@@]2(OC1)O[C@H]1C[C@H]3[C@@H]4CC=C5C[C@@H](O[C@@H]6O[C@H](CO)[C@@H](O[C@@H]7O[C@@H](CO)[C@H](O)[C@H]7O)[C@H](O)[C@H]6O[C@@H]6O[C@@H](C)[C@H](O)[C@@H](O)[C@H]6O)CC[C@]5(C)[C@H]4CC[C@]3(C)[C@H]1[C@@H]2C` [PCM-0216403], the inhibition at 10 µM was -10%.

In the case of `CC1(C)CC[C@]2(C(=O)O[C@@H]3O[C@H](CO)[C@@H](O)[C@H](O)[C@H]3O)CC[C@]3(C)C(=CC[C@@H]4[C@@]5(C)CC[C@H](O[C@@H]6O[C@H](C(=O)O)[C@@H](O)[C@H](O)[C@H]6O)C(C)(C)[C@@H]5CC[C@]43C)[C@@H]2C1` [PCM-0216404], the inhibition at 10 µM was determined as 3.1%.

Take `CC(C)=CCC[C@](C)(O)[C@H]1CC[C@]2(C)[C@@H]1[C@H](O)C[C@@H]1[C@@]3(C)CC[C@H](O)C(C)(C)[C@@H]3[C@@H](O[C@@H]3O[C@H](CO)[C@@H](O)[C@H](O)[C@H]3O[C@@H]3O[C@@H](C)[C@H](O)[C@@H](O)[C@H]3O)C[C@]12C` [PCM-0216405]: the inhibition at 10 µM is -5.4%.

Consider `C[C@]1(O)C[C@@H](O)[C@@H]2C=CO[C@@H](O[C@@H]3O[C@H](CO)[C@@H](O)[C@H](O)[C@H]3O)[C@@H]21` [PCM-0216407], for which the inhibition at 10 µM is -5.4%.

Take `O=c1cc(-c2ccc(O)cc2)oc2cc(O)c(O)c(O)c12` [PCM-0216408]: the inhibition at 10 µM was found to be 70.3%.

As to `O=C1C[C@@H](c2ccc(O)c(O)c2)Oc2cc(O)cc(O)c21` [PCM-0216409], the inhibition at 10 µM is 29.3%.

Consider `CC(C)c1cc2c(c(O)c1O)[C@@]13CCCC(C)(C)[C@@H]1C[C@@H]2OC3=O` [PCM-0216410], for which the inhibition at 10 µM amounted to 10.8%.

`C[C@@H]1O[C@@H](O[C@@H]2[C@@H](O)[C@H](OCCc3ccc(O)c(O)c3)O[C@H](COC(=O)/C=C/c3ccc(O)c(O)c3)[C@H]2O)[C@H](O)[C@H](O)[C@H]1O` [PCM-0216411]: the inhibition at 10 µM was -11.6%.

With `CC(C)=CCC[C@](C)(O)[C@H]1CC[C@]2(C)[C@@H]1[C@H](O)C[C@@H]1[C@@]3(C)CC[C@H](O)C(C)(C)[C@@H]3[C@@H](O[C@@H]3O[C@H](CO)[C@@H](O)[C@H](O)[C@H]3O)C[C@]12C` [PCM-0216412], the inhibition at 10 µM is -10.8%.

`C=C1C[C@@]23CC[C@H]4[C@@](C)(CCC[C@@]4(C)C(=O)O[C@@H]4O[C@H](CO)[C@@H](O)[C@H](O)[C@H]4O)[C@@H]2CC[C@]1(O[C@@H]1O[C@H](CO)[C@@H](O)[C@H](O)[C@H]1O)C3` [PCM-0216413]: the inhibition at 10 µM was found to be 4.6%.

In the case of `O=CC1OC(=O)c2cc(O)c(O)c(O)c2-c2c(cc(O)c(O)c2O)C(=O)OC1C1OC(=O)c2cc(O)c(O)c(O)c2-c2c(O)c(O)c3oc(=O)c4c(c(O)c(O)c5oc(=O)c2c3c54)-c2c(cc(O)c(O)c2O)C(=O)OCC1O` (stereo not shown) [PCM-0216414], the inhibition at 10 µM amounted to 27%.

For `COc1cc2oc(-c3ccc(O)cc3)cc(=O)c2c(O)c1[C@@H]1O[C@H](CO)[C@@H](O)[C@H](O)[C@H]1O[C@@H]1O[C@H](CO)[C@@H](O)[C@H](O)[C@H]1O` [PCM-0216416], the inhibition at 10 µM is -15.4%.

Consider `C=C(C(=O)O)[C@@H]1CC[C@@H](C)[C@@H]2CCC(C)=C[C@@H]21` [PCM-0216417], for which the inhibition at 10 µM amounted to 0%.

Consider `COc1ccc(CCc2cc(OC)c(OC)c(OC)c2)cc1O` [PCM-0216418], for which the inhibition at 10 µM was -24.7%.
